Where “and” joins values, the source holds several entries; their conditions need not be identical. Equal values may be shown once.
Experiments:
[1] = test system: rat model of inflammatory bowel disease (DNBS instilled intracolonically); assay: Evaluation of retinoids which bind to RAR and RXR using DNBS-induced rat model of inflammatory bowel disease (Example 2); type: in vivo, Wistar rats; settings: for Bowel Inflammation Score [average]: 24 h and 2 h before DNBS and once daily for 5 days, macroscopic score 0-10, N = 5; for Presence or Absence of Adhesion (in five rats per group): number of animals with adhesion
Procedure: Male or female Wistar rats weighing 200±5 g were used to create an animal model of inflammatory bowel disease. After the animals were fasted for 24 hours, DNBS (2,4-Dinotrobenzenesulfonic Acid, 30 mg in 0.5 ml 30% ethanol) was instilled intracolonically through the anus. As the medicaments of the present invention, 4-[2,3-(2,5-dimethyl-2,5-hexano)dibenzo[b,f][1,4]thiazepin-11-yl] benzoic acid (HX630) at 3 mg/kg, 4-(5H-7,8,9,10-tetrahydro-5,7,7,10,10-pentamethylbenzo[e]naphtho[2,3-b][1,4]diazepin-13-yl)benzoic acid (LE135) at 5 mg/kg, or a combination of 0.1 mg/kg of Am80 and 3 mg/kg of HX630 were used, and as a comparative example (positive control drug), 300mg/kg of salazosulfapyridine (SASP) as a commercially available drug for ulcerative colitis was used, and each drug was administered 24 hours before and 2 hours before the DNBS infusion, and once daily for 5 days after 24 hours from the infusion. Each drug was administered orally as a suspension in 0.5% carboxymethylcellulose. For the control group, the solvent was administered orally according to the same schedule. The animals were subjected to anatomic examination 24 hours after the final administration, and a degree of bowel inflammation was observed. For each of the Tamibarotene-administered group, SASP-administered group, the normal group, and the control group, five rats were used.
(§1) The results are indicated as the scores of bowel inflammation (average), weight of the colon per unit body weight (100 g body weight) (average±standard error), and the number of animals in each group that gave adhesion. The scoring of bowel inflammation were conducted by visual observation according to the method of judgment described in the reference (Am. J. Physiol., 258: G527-34, 1990). • Score of Bowel Ulceration and Inflammation (Macroscopic) • Score: observation • 0: Normal; • 1: Localized hyperemia, no ulcers; • 2: Ulceration without hyperemia or colonic wall thickening; • 3: Inflammation and ulceration at one site; • 4: Ulcers and Inflammations at two or more sites; • 5: A major damaged site extending in 1 cm or longer along the direction of the colon length; and • 6-10: When a major damaged site extends in 2 cm or longer along the direction of the colon length, a score is increased by one for each additional 1 cm over 2 cm.

[2] = test system: model rat of inflammatory bowel disease (DNBS instilled intracolonically); assay: Evaluation of Am80 using DNBS-induced model rat of inflammatory bowel disease (Example 1); type: in vivo, Wistar rats; settings: for Presence or Absence of Adhesion (in five rats per group): number of animals with adhesion
Procedure: Male or female Wistar rats weighing 200±5 g were used to create an animal model of inflammatory bowel disease. After the animals were fasted for 24 hours, DNBS (2,4-Dinotrobenzenesulfonic Acid, 30 mg in 0.5 ml 30% ethanol) was instilled intracolonically through the anus. Each of 4-[(5,6,7,8-tetrahydro-5,5,8,8-tetramethyl-2-naphthalenyl)carbamoyl]benzoic acid (Am80, generic name: Tamibarotene) as the medicament of the present invention so as to be a dose at 0.3 mg/kg, and salazosulfapyridine (SASP), a commercially available drug for ulcerative colitis, as a comparative example (positive control drug) so as to be a dose at 300 mg/kg was administered 24 hours before and 2 hours before the DNBS infusion, and once daily for 5 days after 24 hours from the infusion. Tamibarotene or SASP was each administered orally as a suspension in 0.5% carboxymethylcellulose. For the control group, the solvent was administered orally according to the same schedule as that for SASP. The animals were subjected to anatomic examination 24 hours after the final administration, and a degree of bowel inflammation was observed. For each of the Tamibarotene-administered group, SASP-administered group, the normal group, and the control group, five rats were used.
as §1, with “of the bowel per unit” for “of the colon per unit”

CC1(C)CCC(C)(C)c2cc3c(cc21)Sc1ccccc1N=C3c1ccc(C(=O)O)cc1 [HX630, 4-[2,3-(2,5-dimethyl-2,5-hexano)dibenzo[b,f][1,4]thiazepin-11-yl] benzoic acid]
Bowel Inflammation Score [average] ([1]; HX630 3 mg/kg oral): 3.4 | Presence or Absence of Adhesion (in five rats per group) ([1]; HX630 3 mg/kg oral): 1/5

CN1c2cc3c(cc2N=C(c2ccc(C(=O)O)cc2)c2ccccc21)C(C)(C)CCC3(C)C [LE135, 4-(5H-7,8,9,10-tetrahydro-5,7,7,10,10-pentamethylbenzo[e]naphtho[2,3-b][1,4]diazepin-13-yl)benzoic acid]
Bowel Inflammation Score [average] ([1]; LE135 5 mg/kg oral): 2.4 | Presence or Absence of Adhesion (in five rats per group) ([1]; LE135 5 mg/kg oral): 0/5

O=C(O)c1cc(/N=N/c2ccc(S(=O)(=O)Nc3ccccn3)cc2)ccc1O [SASP, salazosulfapyridine]
Bowel Inflammation Score [average] ([2]; SASP 300 mg/kg oral, 24 h and 2 h before DNBS and once daily for 5 days, macroscopic score 0-10, N = 5): 2 | Colon weight/100 g body weight [average] ([2]; SASP 300 mg/kg oral, average ± standard error, N = 5): 0.682 ± 0.023 | Presence or Absence of Adhesion (in five rats per group) ([2]; SASP 300 mg/kg oral): 2/5

CC1(C)CCC(C)(C)c2cc(NC(=O)c3ccc(C(=O)O)cc3)ccc21 [Tamibarotene, 4-[(5,6,7,8-tetrahydro-5,5,8,8-tetramethyl-2-naphthalenyl)carbamoyl]benzoic acid]
Presence or Absence of Adhesion (in five rats per group) ([2]; Tamibarotene 0.3 mg/kg oral): significantly suppressed and 0/5

From US8168677B2, “Method for treatment of inflammatory bowel disease” (Kemphys Ltd., priority 2005, dated 2012)
